Measurements from patent publication US12121596B2, “Near infrared fluorescent dyes, formulations and related methods” (Washington University, priority 2019, dated 2024).
Positions of bridges follow the written chain, without caps; N, C: chain ends. Non-standard residues stand in square brackets, D forms with d. Residues, ends and D or L forms follow the SMILES beside them. *: point of attachment. X1 = CC1(C)C(/C=C/C=C/C=C/C=C2/N(CCC(=O)*)c3ccc4ccccc4c3C2(C)C)=[N+](CCC(=O)[O-])c2ccc3ccccc3c21

How the values were obtained:
[1] = Microscale thermophoresis (MST), calcium binding; conditions: read-out: apparent dissociation constant (Kd), calcium
Excerpt: Microscale thermophoresis (MST) studies biomolecular interactions in an aqueous environment without immobilization. MST exploits the directed movement of molecules along a microscopic temperature gradient. The movement rate and direction of movement depend on the species' size, charge, and solvation shell under study. Changes in this environment can change the thermophoretic movement of the species. MST can distinguish very small changes that occur, for example, when a small fluorescent molecule binds to the surface of a protein.
MST was performed using the Monolith NT.115 (Nanotemper Technologies, Munich, Germany). The appropriate agent(s) and LS301 stock samples were denatured in MST-1 buffer (50 mM Tris-HCl, pH 7.4; 150 mM NaCl; 10 mM MgCl2; 2% DMSO; 0.1% Tween-20; 4% SDS, 4 mM dithiothreitol (DTT)) at 97° C. for 10 min. Fluorescence was assessed in MST-2 buffer (50 mM Tris-HCl, pH 7.4; 150 mM NaCl; 10 mM MgCl2). The protein was prepared in MST-2 buffer, and 20 μL serial dilutions were made with protein concentration ranging from 3.05 pM to 50 nM (pANXA2) or 3.81 pM to 62.5 nM (ANXA2). All samples were loaded into NT.115 standard capillaries. […] The apparent Kd values were calculated from fragment concentration-dependent changes in normalized fluorescence (Fraction Bound) of LS301 after 5 seconds of thermophoresis based on mass action law using the MO Affinity Analysis v2.3 software.

[2] = test system: lysates of insulin-stimulated, pANXA2-expressing 4T1 cells; experiment: Binding to lysates of insulin-stimulated 4T1 cells; design: species or system murine; conditions: read-out: apparent Kd, 4T1 cell lysates
Protocol: MST was performed using the Monolith NT.115 (Nanotemper Technologies, Munich, Germany). The appropriate agent(s) and LS301 stock samples were denatured in MST-1 buffer (50 mM Tris-HCl, pH 7.4; 150 mM NaCl; 10 mM MgCl2; 2% DMSO; 0.1% Tween-20; 4% SDS, 4 mM dithiothreitol (DTT)) at 97° C. for 10 min. Fluorescence was assessed in MST-2 buffer (50 mM Tris-HCl, pH 7.4; 150 mM NaCl; 10 mM MgCl2). The protein was prepared in MST-2 buffer, and 20 μL serial dilutions were made with protein concentration ranging from 3.05 pM to 50 nM (pANXA2) or 3.81 pM to 62.5 nM (ANXA2). All samples were loaded into NT.115 standard capillaries. The analysis was performed at 37° C., 30% LED power, 60% MST power, and a constant LS301 concentration of 20 nM. The apparent Kd values were calculated from fragment concentration-dependent changes in normalized fluorescence (Fraction Bound) of LS301 after 5 seconds of thermophoresis based on mass action law using the MO Affinity Analysis v2.3 software.
For Western blot analysis of insulin/PP2-induced change in cellular pANXA2 levels, 4T1 cells were treated with insulin or PP2 as above, lysed, and subjected to SDS-PAGE analysis. […]

[3] = biological target: T1, ANXA2 over ANXA1 and ANXA3 (Homo sapiens, UniProt P07355); experiment: Annexin selectivity, fluorescent gel binding; conditions: ANXA2 vs ANXA1 and ANXA3
T1 construct: GST; purchased MyBioSource, Inc
T1 sequence (P07355 whole entry): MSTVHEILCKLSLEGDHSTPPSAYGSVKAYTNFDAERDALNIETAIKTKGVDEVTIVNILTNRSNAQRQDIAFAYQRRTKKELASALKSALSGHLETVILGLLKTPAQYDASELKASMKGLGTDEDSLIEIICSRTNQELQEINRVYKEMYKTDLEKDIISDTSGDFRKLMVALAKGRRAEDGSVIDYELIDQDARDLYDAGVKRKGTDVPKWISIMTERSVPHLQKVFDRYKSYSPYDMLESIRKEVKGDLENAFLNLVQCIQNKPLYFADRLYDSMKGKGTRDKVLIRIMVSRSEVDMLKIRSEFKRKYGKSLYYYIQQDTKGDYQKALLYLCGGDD
Protocol: For fluorescent gel binding experiments, 1 μg recombinant annexin A2 protein was incubated with LS301 or cypate (10 μM) at 37° C. for the periods indicated. Samples were subjected to SDS-PAGE on precast gels (Bio-Rad, Hercules, CA), and gels were imaged for near-infrared fluorescence (800 nm) using a Pearl Small Animal Imager (LI-COR Biosciences, Lincoln, NE, USA). For competitive binding experiments, Annexin A2-GST, annexin A1, or annexin A3 (1.0 μg protein per sample) was pre-incubated with or without 2.5 mM of LS637 (non-fluorescent LS301 analog; blocking peptide) in binding buffer (25 mM Tris-HCl pH 7.4, 150 mM NaCl, 1 mM MgCl2, 1 mM CaCl2) for 1 hour at 37° C. Ten μM. LS301 was then added to each sample. After incubation for 2 hours at 37° C., proteins were subjected to SDS-PAGE and imaged fluorescently. For some experiments, LS301 was incubated with 4T1 tumor cells before SDS-PAGE.

[4] = test system: fibroblast co-cultured with ANXA2-positive GFP-expressing 4T1 cells; experiment: Fibroblast and 4T1 co-culture uptake; format: cell-based
Protocol: For co-culture experiments on intercellular pANXA2/ANXA2 transfer, fibroblasts (FB) (5×10^4 cells/well) were seeded on a 35-mm glass-bottom Petri dish (MarTek Cor. Ashland, MA, USA) overnight before seeding of 5×10^4 of cancer cells and further culture overnight before the experiment. LS301 (1 μM) was incubated with co-cultures of FB and ANXA2-YFP transfected HL60 cells, co-cultures of FB and wild-type HL60 cells, or co-cultures of FB and 4T1-GFP cells at 37° C. for 3 hours and then washed twice with 0.01 M PBS (pH 7.4). Then, the cells were fixed with 4% paraformaldehyde for 10 minutes.

[5] = Solubility and dilution stability of LS301 stock solutions; format: physicochemical; conditions: transparent solution, no precipitate after centrifugation
Protocol: At room temperature (˜25° C.), 200 μL of DMSO was added to 0.5 mg LS301 and vortexed for about 1 minute to homogenize. The solution was centrifuged to remove any non-dissolved components. The concentration was measured via absorbance.
Generally, solution concentrations ranged between 290 and 330 μM. This concentrated solution was diluted dropwise into 800 μL phosphate-buffered saline (PBS) calculated such that the final concentration was 60 μM LS301 and that the final concentration was 20% DMSO/80% PBS by volume (“20% DMSO”).
A 1:1 PEG400/Ethanol solution (v/v) was prepared by mixing 4 mL of PEG400 and 4 mL of ethanol and vortexing at high speed for 1 minute. 200 μL of this 1:1 solution was added to about 0.5 mg of LS301 to produce a transparent solution (>300 μM). No precipitate was observed after centrifugation.
LS301's solubility in ethanol ranged near the cutoff for producing a 20% ethanol/PBS solution. […] The 1:1 PEG400/ethanol solution could maintain stability up to about 1-to-16 dilution. In vivo, a screening test was done by IV injection of 60 μM solution into a Balb/c mouse with two 4T1luc tumors dorsally injected. […] To confirm LS301's multitumor affinity in the new solvent, solutions were tested against HT1080, A431, and DBT tumor-bearing mice.

CC1(C)C(/C=C/C=C/C=C/C=C2/N(CCC(=O)N[C@@H]3CSSC[C@@H](C(=O)N[C@@H](CCCCN)C(=O)O)NC(=O)[C@@H]4CCCN4C(=O)[C@H](CO)NC(=O)[C@H](CC(=O)O)NC(=O)[C@H](CCCNC(=N)N)NC(=O)CNC3=O)c3ccc4ccccc4c3C2(C)C)=[N+](CCC(=O)[O-])c2ccc3ccccc3c21 [LS301, cypate-cyclic (DCys-Gly-Arg-Asp-Ser-Pro-Cys)-Lys-OH] (X1-[dC]GRDSPCK-OH; disulfide 1-7)
Kd [1]: 5.67 ± 2.4 nM
Kd [2]: 0.017 ± 0.004 nM
annexin binding preference [3]: preferentially targets ANXA2 over ANXA1 and ANXA3
uptake in co-culture [4]: LS301 uptake by tumor cells and fibroblasts
solution concentration in 1:1 PEG400/Ethanol [5]: > 300 µM
